Where no end group is shown, it is not given here.
Assays:
HD R6/2 mice = assay: Striatal neuropathology in R6/2 mice (DARPP-32 immunohistochemistry, Golgi-Cox staining, striatum volume); type: in vivo, mouse
Protocol: Mice were deeply anesthetized and transcardially perfused with 4% paraformaldehyde in PBS. Brains were processed for paraffin embedment. Brain sections (10 μm, coronal) were used for immunohistochemical localization of DARPP-32 (1:500, Abcam) or ATAD3A (1:200, Genetex) using the IHC Select HRP/DAB kit (Millipore). Quantitation of DARPP-32 immunostaining was conducted using NIH image J software. The same image exposure times and threshold settings were used for sections from all treatment groups. An experimenter blinded to the experimental groups conducted the quantitation.
Coronal sections (10 μm) spaced 200 μm apart throughout the striatum will be stained with anti-NeuN (Sigma, MAB377, 1:200 dilution) antibody followed by secondary antibodies and detection with diaminobenzidine (DAB, Pierce). The perimeter of the striatum will be traced in each of the serial sections using a ×2 objective. For the volume estimation, consecutive sections (an average of 10-15 sections/animal) will be visualized and the perimeter of the striatum will be outlined. The striatal volume will be estimated by multiplying the sum of all the sectional areas (mm2) by the distance between successive sections (200 μm).
Dendrite morphology of medium spiny neurons in wildtype and HD R6/2 mice was analyzed by Golgi-Cox staining using Novaultra Golgi-Cox Stain Kit (IHCWorld, SKU IW-3023). Briefly, mice were deeply anesthetized and transcardially perfused with 4% paraformaldehyde in PBS. After thoroughly washing with PBS overnight, mouse brains were immersed in the Golgi-Cox solution in dark at room temperature, then replaced with fresh Golgi-Cox Solution after 2 days of immersion and continued the impregnation at room temperature in dark for 14 days following the manufactory instruction. After washing with PBS for 2 days, serial coronal sections of 200 μm thick were cut on Vibratome Series 1000 Sectioning System. […] Total dendritic length per neuron was measured using NIH Image J plug-in simple neurite tracer.

Drp1/ATAD3A [1] = biological target: T1, Drp1/ATAD3A (Mus musculus, UniProt Q925I1); assay: Immunoprecipitation of Drp1/ATAD3A binding in striatal extracts of treated HD R6/2 mice; type: in vivo; settings: striatal extracts of HD R6/2 mice, 1 mg/kg/day from 6 to 12 weeks
T1 construct: The total lysates of cells or mouse striatum were subject to IP analysis; endogenous in cells; host or cells: HdhQ7 / HdhQ111 mouse striatal cells; wild-type mouse striatal cells exposed to 3-NP
T1 sequence (Q925I1 2-591 limits assumed): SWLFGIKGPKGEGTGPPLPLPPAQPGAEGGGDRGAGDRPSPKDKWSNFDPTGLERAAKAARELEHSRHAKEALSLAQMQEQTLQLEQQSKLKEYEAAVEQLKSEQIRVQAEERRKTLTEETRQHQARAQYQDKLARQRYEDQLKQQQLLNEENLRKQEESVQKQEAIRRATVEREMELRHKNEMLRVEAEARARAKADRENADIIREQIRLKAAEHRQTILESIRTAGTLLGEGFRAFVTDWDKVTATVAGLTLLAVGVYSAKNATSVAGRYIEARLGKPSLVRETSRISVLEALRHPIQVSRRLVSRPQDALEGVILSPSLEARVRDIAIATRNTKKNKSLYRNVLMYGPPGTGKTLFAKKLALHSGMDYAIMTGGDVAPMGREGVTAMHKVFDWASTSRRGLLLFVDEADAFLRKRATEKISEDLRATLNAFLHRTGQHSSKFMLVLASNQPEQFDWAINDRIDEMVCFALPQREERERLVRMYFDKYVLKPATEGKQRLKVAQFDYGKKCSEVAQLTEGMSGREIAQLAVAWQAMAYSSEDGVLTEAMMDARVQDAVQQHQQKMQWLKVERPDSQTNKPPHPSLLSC
Protocol: (§1) Cells and mouse brain tissues were harvested and lysed in total lysis buffer ([…], pH 7.9, […], […], 1% Triton X-100, and protease inhibitor cocktail) for 30 mins on ice and centrifuged at 12,000×g for 10 min at 4° C. The supernatants were incubated with the indicated primary antibodies or control IgG (sc-2025 and sc-2027, Santa Cruz Biotechnology) overnight at 4° C., followed by incubation with protein A/G beads (sc-2003, Santa Cruz Biotechnology) for 2 h at 4° C. The immunoprecipitates were washed with lysis buffer three times for a total of 30 min and then subject to WB analysis.
Systemic peptide treatment in HD mice. All randomization and peptide treatments were prepared by an experimenter not associated with behavioral and neuropathology analysis. Male R6/2 mice (Tg) and their age-matched wild-type littermates (Wt) (6-week-old) were implanted with a 28-day osmotic pump (Alzet, Cupertino CA, Model 2004) containing TAT control peptide or DA1 peptide, which delivered peptides at a rate of 1 mg/kg/day. Male YAC128 mice (Tg) and their age-matched wild-type littermates (WT) were treated with TAT control peptide or DA1 peptide (1 mg/kg/day) by Alzet osmotic pump starting from the age of 3 months. The pump was replaced once every month.

Drp1/ATAD3A [2] = biological target: T1, Drp1/ATAD3A; assay: Immunoprecipitation of Drp1/ATAD3A binding in mouse striatal cells; type: cell-based
Protocol: as §1

[3] = tested on: activated microglial cells; assay: Iba1 immunofluorescence of microglial activity in HD mouse striatum; type: in vivo
Protocol: For Iba1 immunofluorescence staining, mice were deeply anesthetized and transcardially perfused with 4% paraformaldehyde in PBS. Frozen brain sections (10 μm, coronal) were permeabilized with 0.1% Triton X-100 in TBS-T buffer followed by blocking with 5% normal goat serum. The brain sections were then incubated with anti-Iba1 antibody (1:500 dilution) for overnight at 4° C., followed by staining with Alex-488 anti-rabbit secondary antibody (1:2000 dilution). Iba1-immunopositive cells in the […] were quantitated by image J software.

[4] = tested on: mitochondrial fusion and fission-related proteins; assay: Total protein levels of mitochondrial dynamics proteins by western blot; type: cell-based
Protocol: Protein concentration was measured by protein assay dye reagents (Bio-rad). The protein was resuspended in Laemmli buffer, loaded on SDS-PAGE, and transferred onto nitrocellulose membranes. Membranes were probed with the indicated antibodies, followed by visualization with ECL. Representative blots have been cropped for presentation.

“YGRKKRRQRRRGGEDKRKT-NH2 [DA1, YGRKKRRQRRR-GG-EDKRKT-NH2]” was tested, and the “dendritic morphology of MSN (Golgi-Cox staining)” value (HD R6/2 mice) was “improved”, the striatum volume (HD R6/2 mice) was “increased” and the “area occupied by DARPP-32-immunostained cells in the striatum” value (HD R6/2 mice; 12 weeks old) was “increased”. The “binding of Drp1/ATAD3A” value (Drp1/ATAD3A [1]) was “significantly reduced”, the “binding of Drp1/ATAD3A” value (Drp1/ATAD3A [2]; HdhQ111 cells, peptide 1 μM/day for 4 days, vs TAT) was “significantly reduced” and the “binding of Drp1/ATAD3A” value (Drp1/ATAD3A [2]; wildtype mouse striatal cells exposed to 3-NP (5 mM for 4 hours), DA1 1 μM overnight) was “significantly reduced”. The “inflammatory response (Iba1-marked activated microglial cells)” value ([3]; HD R6/2 mouse striatum, 12 weeks old) was “corrected”, the “inflammatory response (Iba1-marked activated microglial cells)” value ([3]; YAC128 mouse striatum, 6 months old) was “corrected” and the “other mitochondrial fusion and fission-related proteins (total protein levels)” value [4] was “did not affect”.
